The text below walks through data of patent publication EP2845588A1, “PIN1 inhibitors for use in the prevention and/or treatment of theileriosis, and related applications” (Centre National de la Recherche Scientifique (CNRS), priority 2013, dated 2015).

In experiment [1] the test system is Parasite-infected TBL3 cells. The experiment in a line: Cell proliferation, live cell count after trypan blue exclusion, TBL3. The experiment is classed as cell-based, bovine. The note with it: live cells counted after trypan blue exclusion. Here is the method: (§1) All infected bovine cell lines used in this study were previously described: TBL3 cells were derived from in vitro infection of the spontaneous bovine-B lymphosarcoma cell line, BL3, with Hissar stock of T.annulata. The TpMD409 lymphocyte cell line are infected with T. parva. The culture conditions of these cell lines were previously described by Moreau et al., 1999. Cells were cultured in RPMI 1640 (Gibco-BRL, Paisley, UK), supplemented with 10% heat-inactivated Fetal calf serum, 4mM L-Glutamine, 25mM HEPES, 10µM β-mercaptoethanol and 100µg/ml penicillin/streptomycin in a humidified 5%CO2 atmosphere at 37°C. HepG2, NIH/3T3 and MEF cells lines were cultured in DMEM (Gibco-BRL, Paisley, UK), supplemented with 10% heat-inactivated Fetal calf serum, 4mM L-Glutamine, 25 mM HEPES, 10µM β-mercaptoethanol and 100µg/ml penicillin/streptomycin in a humidified 5% CO2 atmosphere at 37°C. Cell numbers, as judged by Trypan Blue exclusion test, were determined by counting cells using a Countess automated cell counter (Invitrogen, CA, USA). The anti-parasite drug Buparvaquone (BW720c) was used at 200ng/ml for 72 hours. BW720c has no effect on growth of uninfected cells. […]

Experiment [2] relates to Parasite-infected TBL3 cells. The experiment in a line: Soft agar colony forming assay, TBL3. The experiment is classed as cell-based, bovine. Conditions: colonies counted 10 days after plating. The procedure: as §1, with “HepG2, NIH/3T3 and MEF cells lines were cultured in DMEM (Gibco-BRL, Paisley, UK), supplemented with 10% heat-inactivated Fetal calf serum, 4mM L-Glutamine, 25 mM HEPES, 10µM β-mercaptoethanol and 100µg/ml penicillin/streptomycin in a humidified 5% CO2 atmosphere at 37°C.” left out, “USA).” for “USA). The anti-parasite drug Buparvaquone (BW720c) was used at 200ng/ml for 72 hours. BW720c has no effect on growth of uninfected cells.”
(§2) A two-layer soft agar culture system was used. […] Cultures were incubated in humidified 37°C incubators with an atmosphere of 5%CO2 in air, and control plates were monitored for growth using a microscope. At the time of maximum colony formation (10 days in culture), final colony numbers were counted manually after fixation a staining with 0.005% Crystal Violet (Sigma, Ref.: C3886).

Experiment [3] has as its system non-parasitized BL3 cells. The experiment in a line: Cell proliferation, live cell count after trypan blue exclusion, BL3. The experiment is classed as cell-based, bovine. The note with it: BL3 / uninfected cells. The procedure: All infected bovine cell lines used in this study were previously described: TBL3 cells were derived from in vitro infection of the spontaneous bovine-B lymphosarcoma cell line, BL3, with Hissar stock of T.annulata. The TpMD409 lymphocyte cell line are infected with T. parva. The culture conditions of these cell lines were previously described by Moreau et al., 1999. Cells were cultured in RPMI 1640 (Gibco-BRL, Paisley, UK), supplemented with 10% heat-inactivated Fetal calf serum, 4mM L-Glutamine, 25mM HEPES, 10µM β-mercaptoethanol and 100µg/ml penicillin/streptomycin in a humidified 5%CO2 atmosphere at 37°C. HepG2, NIH/3T3 and MEF cells lines were cultured in DMEM (Gibco-BRL, Paisley, UK), supplemented with 10% heat-inactivated Fetal calf serum, 4mM L-Glutamine, 25 mM HEPES, 10µM β-mercaptoethanol and 100µg/ml penicillin/streptomycin in a humidified 5% CO2 atmosphere at 37°C. Cell numbers, as judged by Trypan Blue exclusion test, were determined by counting cells using a Countess automated cell counter (Invitrogen, CA, USA). The anti-parasite drug Buparvaquone (BW720c) was used at 200ng/ml for 72 hours. BW720c has no effect on growth of uninfected cells.
Cells were treated with either Juglone at 5 µM resuspended in Ethanol (Sigma, St Louis, MO, Ref.: H47003), or PiB at 1 µM resuspended in DMSO (Sigma, Ref.: B7688), or Dimethyloxalylglycine DMOG at 0.5 mM resuspended in DMSO (Tebu-bio, MO, USA).

A further experiment deals with TpMD409 cells. The experiment in a line: Soft agar colony forming assay, TpMD409. The experiment is classed as cell-based, bovine. Conditions: colonies counted 10 days after plating. The procedure:
as §1, with “HepG2, NIH/3T3 and MEF cells lines were cultured in DMEM (Gibco-BRL, Paisley, UK), supplemented with 10% heat-inactivated Fetal calf serum, 4mM L-Glutamine, 25 mM HEPES, 10µM β-mercaptoethanol and 100µg/ml penicillin/streptomycin in a humidified 5% CO2 atmosphere at 37°C.” left out, “USA).” for “USA). The anti-parasite drug Buparvaquone (BW720c) was used at 200ng/ml for 72 hours. BW720c has no effect on growth of uninfected cells.”
as §2

Experiment [4] deals with Theileria parasites in TBL3-infected cells. The experiment in a line: Parasites quantification by DAPI staining in infected cells. The experiment is classed as cell-based, T.annulata. Conditions: 72h, Buparvaquone 200ng/ml, Juglone 5 µM, PiB 1 µM. The procedure: All infected bovine cell lines used in this study were previously described: TBL3 cells were derived from in vitro infection of the spontaneous bovine-B lymphosarcoma cell line, BL3, with Hissar stock of T.annulata. The TpMD409 lymphocyte cell line are infected with T. parva. The culture conditions of these cell lines were previously described by Moreau et al., 1999. Cells were cultured in RPMI 1640 (Gibco-BRL, Paisley, UK), supplemented with 10% heat-inactivated Fetal calf serum, 4mM L-Glutamine, 25mM HEPES, 10µM β-mercaptoethanol and 100µg/ml penicillin/streptomycin in a humidified 5%CO2 atmosphere at 37°C. HepG2, NIH/3T3 and MEF cells lines were cultured in DMEM (Gibco-BRL, Paisley, UK), supplemented with 10% heat-inactivated Fetal calf serum, 4mM L-Glutamine, 25 mM HEPES, 10µM β-mercaptoethanol and 100µg/ml penicillin/streptomycin in a humidified 5% CO2 atmosphere at 37°C. Cell numbers, as judged by Trypan Blue exclusion test, were determined by counting cells using a Countess automated cell counter (Invitrogen, CA, USA). The anti-parasite drug Buparvaquone (BW720c) was used at 200ng/ml for 72 hours. BW720c has no effect on growth of uninfected cells. […] Images of immunofluoresence staining were photographed with a fluorescent microscope (Leica Inverted 6000) and the number of parasites per cells was counted. […]

In experiment [5] the test system is transcripts encoding glycolytic enzymes. The experiment in a line: Expression of transcripts encoding glycolytic enzymes in Theileria-infected cells. The class given is cell-based, bovine. The procedure:
Total cellular RNAs were extracted using an RNeasy Plus Mini Kit (Qiagen, Hilden, Germany) and parasite RNAs were extracted using the classical Trizol Protocol. cDNA synthesis was performed with the Reverse Transcriptase Superscript III (Invitrogen, CA, USA).
Quantitative PCR amplification was performed in the ABI 7500 machine (Applied Biosystems, CA, USA) using the Sybr Green reagent (Applied Biosystems, CA, USA) using the primers listed in Table 5 below. The detection of a single product was verified by dissociation curve analysis. Relative quantities of mRNA were analyzed using the delta Ct method. The βactin qPCR was used for normalization. Table 5: qPCR primers

As for `CCOC(=O)CN1C(=O)c2ccc3c4c(ccc(c24)C1=O)C(=O)N(CC(=O)OCC)C3=O` [PiB, benzo[Imn][3,8]phenanthroline-2,7-diacetic acid, 1,3,6,8-tetrahydro-1,3,6,8-tetraoxo-, diethyl ester], in experiment [1], the cell proliferation result is reported as “affects TBL3 cell proliferation”. For the same molecule, the “transformed phenotype, colonies in soft agar” value (in experiment [2]; in the experiment with TpMD409 cells) was “reduced” each time. Further, in experiment [3], the “proliferation of non-parasitized cells” value was “no effect”. In addition, the “parasites in TBL3 cells” value in experiment [4] is reported as “eliminate parasites”. Besides, in experiment [5], the “expression of the transcripts encoding glycolytic enzymes” value was “reduced expression”.
Take `CC(C)(C)C1CCC(CC2=C(O)C(=O)c3ccccc3C2=O)CC1` (stereo not shown) [Buparvaquone, 2-((4-tert-butylcyclohexyl)methyl)-3-hydroxy-1,4-naphthoquinone]: the cell proliferation entry in experiment [1] was “reduced”. The “transformed phenotype, colonies in soft agar” value (in experiment [2]; in the experiment with TpMD409 cells) was “reversed the transformed phenotype” in each case. In experiment [3], the “proliferation of non-parasitized cells” value was “no effect”. Besides, the “parasites in TBL3 cells” value in experiment [4] is “eliminate parasites”. Further, the “expression of the transcripts encoding glycolytic enzymes” value in experiment [5] is given as “reduced expression”. The “drug-induced decrease in glycolytic enzyme expression on overexpression of the TaPIN A53P mutant” value in experiment [5] (overexpression of TaPIN A53P) is “reversed”.
